According to patent publication US8192962B2, “Processes for detecting toxic substances” (Daikin Industries, Ltd., priority 2001, dated 2012):

Test system: Genes belonging to other category
Test: DNA chip mRNA expression in yeast, genes belonging to other category (Table 9)
Type: cell-based, Saccharomyces cerevisiae S288C
How it was run: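 Chemical exposure: 2 h, log-phase S. cerevisiae S288C, YPD, 25° C., dose set to inhibit growth without death. Profiling: mRNA labeled by reverse transcription with Cy3- or Cy5-dUTP, hybridized to whole-genome array. Output: fluorescence ratio against untreated culture.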

## S=C([S-])NCCNC(=S)[S-].[Zn+2] [(11), zinc N,N′-ethylenebis(dithiocarbamate)]
Yeast gene YJL141C
  The level of expressed mRNA in the presence of chemical substance/The level of expressed mRNA in the absence of chemical substance: 1.2
Yeast gene YJR004C
  The level of expressed mRNA in the presence of chemical substance/The level of expressed mRNA in the absence of chemical substance: 0.7
Yeast gene YJR058C
  The level of expressed mRNA in the presence of chemical substance/The level of expressed mRNA in the absence of chemical substance: 1.2
Yeast gene YJR069C
  The level of expressed mRNA in the presence of chemical substance/The level of expressed mRNA in the absence of chemical substance: 0.9
Yeast gene YJR086W
  The level of expressed mRNA in the presence of chemical substance/The level of expressed mRNA in the absence of chemical substance: 1.0
Yeast gene YKL008C
  The level of expressed mRNA in the presence of chemical substance/The level of expressed mRNA in the absence of chemical substance: 1.5
Yeast gene YKL013C
  The level of expressed mRNA in the presence of chemical substance/The level of expressed mRNA in the absence of chemical substance: 1.1
Yeast gene YKL039W
  The level of expressed mRNA in the presence of chemical substance/The level of expressed mRNA in the absence of chemical substance: 1.0
Yeast gene YKL041W
  The level of expressed mRNA in the presence of chemical substance/The level of expressed mRNA in the absence of chemical substance: 1.2
Yeast gene YKL079W
  The level of expressed mRNA in the presence of chemical substance/The level of expressed mRNA in the absence of chemical substance: 1.3
Yeast gene YKL096W
  The level of expressed mRNA in the presence of chemical substance/The level of expressed mRNA in the absence of chemical substance: 3.5
Yeast gene YKL097W-A
  The level of expressed mRNA in the presence of chemical substance/The level of expressed mRNA in the absence of chemical substance: 1.6
Yeast gene YKL139W
  The level of expressed mRNA in the presence of chemical substance/The level of expressed mRNA in the absence of chemical substance: 1.4
Yeast gene YKL165C
  The level of expressed mRNA in the presence of chemical substance/The level of expressed mRNA in the absence of chemical substance: 0.3
Yeast gene YKL193C
  The level of expressed mRNA in the presence of chemical substance/The level of expressed mRNA in the absence of chemical substance: 1.7
Yeast gene YKL198C
  The level of expressed mRNA in the presence of chemical substance/The level of expressed mRNA in the absence of chemical substance: 1.4
Yeast gene YKR014C
  The level of expressed mRNA in the presence of chemical substance/The level of expressed mRNA in the absence of chemical substance: 1.1
Yeast gene YLR093C
  The level of expressed mRNA in the presence of chemical substance/The level of expressed mRNA in the absence of chemical substance: 1.0
Yeast gene YLR110C
  The level of expressed mRNA in the presence of chemical substance/The level of expressed mRNA in the absence of chemical substance: 3.2
Yeast gene YLR118C
  The level of expressed mRNA in the presence of chemical substance/The level of expressed mRNA in the absence of chemical substance: 1.2
Yeast gene YLR120C
  The level of expressed mRNA in the presence of chemical substance/The level of expressed mRNA in the absence of chemical substance: 1.2
Yeast gene YLR136C
  The level of expressed mRNA in the presence of chemical substance/The level of expressed mRNA in the absence of chemical substance: 1.2
Yeast gene YLR178C
  The level of expressed mRNA in the presence of chemical substance/The level of expressed mRNA in the absence of chemical substance: 3.7
Yeast gene YLR250W
  The level of expressed mRNA in the presence of chemical substance/The level of expressed mRNA in the absence of chemical substance: 1.4
Yeast gene YLR251W
  The level of expressed mRNA in the presence of chemical substance/The level of expressed mRNA in the absence of chemical substance: 4.1
Yeast gene YLR327C
  The level of expressed mRNA in the presence of chemical substance/The level of expressed mRNA in the absence of chemical substance: 5.0
Yeast gene YLR340W
  The level of expressed mRNA in the presence of chemical substance/The level of expressed mRNA in the absence of chemical substance: 1.4
Yeast gene YLR356W
  The level of expressed mRNA in the presence of chemical substance/The level of expressed mRNA in the absence of chemical substance: 3.1
Yeast gene YLR360W
  The level of expressed mRNA in the presence of chemical substance/The level of expressed mRNA in the absence of chemical substance: 0.9
Yeast gene YLR362W
  The level of expressed mRNA in the presence of chemical substance/The level of expressed mRNA in the absence of chemical substance: 1.5
Yeast gene YLR391W
  The level of expressed mRNA in the presence of chemical substance/The level of expressed mRNA in the absence of chemical substance: 1.4
Yeast gene YLR429W
  The level of expressed mRNA in the presence of chemical substance/The level of expressed mRNA in the absence of chemical substance: 0.9
Yeast gene YML055W
  The level of expressed mRNA in the presence of chemical substance/The level of expressed mRNA in the absence of chemical substance: 1.4
Yeast gene YMR004W
  The level of expressed mRNA in the presence of chemical substance/The level of expressed mRNA in the absence of chemical substance: 2.5
Yeast gene YMR091C
  The level of expressed mRNA in the presence of chemical substance/The level of expressed mRNA in the absence of chemical substance: 0.9
Yeast gene YMR092C
  The level of expressed mRNA in the presence of chemical substance/The level of expressed mRNA in the absence of chemical substance: 1.2
Yeast gene YMR094W
  The level of expressed mRNA in the presence of chemical substance/The level of expressed mRNA in the absence of chemical substance: 1.0
Yeast gene YMR104C
  The level of expressed mRNA in the presence of chemical substance/The level of expressed mRNA in the absence of chemical substance: 1.1
Yeast gene YMR112C
  The level of expressed mRNA in the presence of chemical substance/The level of expressed mRNA in the absence of chemical substance: 0.9
Yeast gene YMR214W
  The level of expressed mRNA in the presence of chemical substance/The level of expressed mRNA in the absence of chemical substance: 0.7
Yeast gene YMR219W
  The level of expressed mRNA in the presence of chemical substance/The level of expressed mRNA in the absence of chemical substance: 1.5
Yeast gene YMR226C
  The level of expressed mRNA in the presence of chemical substance/The level of expressed mRNA in the absence of chemical substance: 1.4
Yeast gene YMR238W
  The level of expressed mRNA in the presence of chemical substance/The level of expressed mRNA in the absence of chemical substance: 1.2
Yeast gene YMR255W
  The level of expressed mRNA in the presence of chemical substance/The level of expressed mRNA in the absence of chemical substance: 1.2
Yeast gene YMR275C
  The level of expressed mRNA in the presence of chemical substance/The level of expressed mRNA in the absence of chemical substance: 1.1
Yeast gene YMR276W
  The level of expressed mRNA in the presence of chemical substance/The level of expressed mRNA in the absence of chemical substance: 1.9
Yeast gene YMR314W
  The level of expressed mRNA in the presence of chemical substance/The level of expressed mRNA in the absence of chemical substance: 1.8
Yeast gene YNL006W
  The level of expressed mRNA in the presence of chemical substance/The level of expressed mRNA in the absence of chemical substance: 1.1
Yeast gene YNL007C
  The level of expressed mRNA in the presence of chemical substance/The level of expressed mRNA in the absence of chemical substance: 1.3
Yeast gene YNL039W
  The level of expressed mRNA in the presence of chemical substance/The level of expressed mRNA in the absence of chemical substance: 0.4
